Data on one compound can be found in patent publication US11135224B2, “Methods of sensitizing estrogen receptor positive (ER+) breast cancer cells to endocrine therapy” (New York University, priority 2018, dated 2021).

Test [1] deals with eIF4E phosphorylation (MNK1). As to the kind of experiment: Immunoblot of eIF4E phosphorylation, CGP57380 dose escalation in TamS and TamR cells. Conditions: escalating doses, 2 hours. It is filed as cell-based, human. The procedure: Endogenous eIF4E was silenced by shRNA. Cell proliferation was assayed by MTT assay with cells treated with DMSO vehicle or 1 μM 4-OHT. Results are from three independent experiments. […] Endogenous eIF4E was silenced by shRNA. Cell proliferation was assayed by MTT assay using conditions described above for FIG. 4. Results from three independent experiments are shown. FIG. 6C is an immunoblot of TamS and TamR cells treated with escalating doses of CGP57380 (GCP) for 2 hours and lysed in NP-40 buffer; equal protein amounts were probed for P-eIF4E, total eIF4E, and β-actin (loading control). […] Cells were treated with DMSO, 1 μM 4-OHT, or 4-OHT and MNK1 inhibitor CGP. […]
Immunoblot Studies: In brief, cells were lysed in NP-40 buffer (50 mM HEPES, pH 7.0, 150 mM NaCl, 2 mM EDTA, 25 mM NaF, 25 mM β-glycerophosphate, 2 mM Na3VO4, 1% IGEPAL, and Complete Mini protease inhibitor cocktail tablet+/−EDTA; Roche) or RIPA lysis buffer (1% Triton X-100, 1% sodium deoxycholate, 0.1% SDS, 150 mM NaCl, 50 mM Tris, pH 7.4, 2 mM Na3VO4, 25 mM β-glycerophosphate, 15 mM NaF, and complete protease inhibitor mix; Roche) and lysate cleared by centrifugation at 13,000 rpm for 10 minutes at 4° C. Lysate protein concentration was determined for each sample using BCA assay. […] Quantitation was performed by determination of the integrated density of the bands using ImageJ software. […]
In general terms: A western blot detects proteins with antibodies after separation by electrophoresis.

For test [2], the system named is RUNX2 protein. As to the kind of experiment: RUNX2 protein immunoblot after CGP57380. It is filed as cell-based, human. Conditions: TamS and TamR cells, treated for 6 hours vs untreated. The protocol:
The average of three studies is shown. The immunoblot is representative of three independent studies. […] Equal amounts of RNA were quantified by RT-qPCR and normalized to GAPDH using the −ΔΔCt method. An average of three studies is shown. […] Equal protein amounts were immunoblotted as shown. eEF2 was used as a loading control. […] Cells were treated with DMSO and 1 μM4-OHT and silenced for Runx2 or nonsilencing (NS). The results of three independent experiments are shown. […] Lines represent validated and predicted interactions. […] (**)P<0.01; (***)P<0.001 by t-test.
Immunoblot Studies: In brief, cells were lysed in NP-40 buffer (50 mM HEPES, pH 7.0, 150 mM NaCl, 2 mM EDTA, 25 mM NaF, 25 mM β-glycerophosphate, 2 mM Na3VO4, 1% IGEPAL, and Complete Mini protease inhibitor cocktail tablet+/−EDTA; Roche) or RIPA lysis buffer (1% Triton X-100, 1% sodium deoxycholate, 0.1% SDS, 150 mM NaCl, 50 mM Tris, pH 7.4, 2 mM Na3VO4, 25 mM β-glycerophosphate, 15 mM NaF, and complete protease inhibitor mix; Roche) and lysate cleared by centrifugation at 13,000 rpm for 10 minutes at 4° C. Lysate protein concentration was determined for each sample using BCA assay. […] Quantitation was performed by determination of the integrated density of the bands using ImageJ software.
The biological functions of mRNAs identified as highly eIF4E-dependent in tamoxifen-resistant cells were next assessed. […]

Each structure is given as a SMILES string.

Take `Nc1ncnc2n[nH]c(Nc3ccc(F)cc3)c12` [CGP57380]: in test [1], the “concentration for complete inhibition of eIF4E phosphorylation” value was found to be 10 µM. Moreover, in test [2], the RUNX2 protein levels result is “reduced more than threefold”.
